Measured values taken from patent publication US6512004B2, “Promoters of neural regeneration” (The Regents of the University of California, priority 1998, dated 2003).
Entries after “also recorded” stand apart in the source; their conditions may differ.

Experiments:
Assay type in all cases: cell-based
[1] = test system: growth cones of the cultured Xenopus spinal neuron; assay: Growth cone turning in a Sema III gradient; conditions: for conversion of the Sema III turning response in the presence of 8-br-cGMP: 8-br-cGMP 100 μM plus Rp-cAMPS or Sp-cAMPS 20 μM; for growth cone turning response in Sema III gradient with agent in culture medium: Sema III 50 μg/ml in the pipette, 8-br-cGMP 100 μM, Sp-cGMPS 10 μM, PP-9 10 μM, SNAP 300 μM, Rp-cGMPS 10 μM, cAMPS analogues 20 μM, one-hour exposure
Procedure: Collapsin-1/Semaphorin III/D (Sema III), a diffusible member of the semaphorin family can repel or cause collapse of growth cones in culture (6). […] We analyzed the effect of a microscopic gradient of Sema III on growth cones of the cultured Xenopus spinal neuron (8). Sema III-containing saline was applied in pulses from a micropipette positioned 100 μm from the center of the growth cone and at a 45° angle with respect to the original direction of neurite extension. […] The repulsive response was dose-dependent with a minimal response occurring at an effective concentration of about 10 ng/ml at the growth cone (8). Heat-inactivated Sema III was ineffective (FIG. 1A). […] The rate of neurite extension was unaffected by the presence of the Sema III gradient.
(§1) 8. Dissociated Xenopus spinal neurons were prepared as described (4,5). Isolated spinal neurons were used for experiments at room temperature (22°-24° C.) 14-22 hour after plating. Sema III was purified from conditioned medium of stable 293-EBNA cell lines secreting Sema III-AP as described (17). To inactivate Sema III activity, the supernatant containing Sema III-AP was heated at 85° C. for 45 minutes [J. Fan and J. A. Raper, Neuron 14, 263 (1995)]. Microscopic gradients of diffusible factors were produced as described (4,5). The average concentration of factors at the growth cone was about 10^3-fold lower than that in the pipette [A. M. Lohof, M. Quilian, Y. Dan and M-m. Poo, J. Neurosci. 12, 1253 (1992)], and a concentration gradient of 5-10% was created across a growth cone 10 μm wide, 100 μm away from the tip of the ejecting pipette. The original direction of neurite growth was defined by the last 10-μm segment of the neurite. The turning angle was defined by the angle between the original direction of neurite extension and a straight line connecting the positions of the growth cone at the onset and the end of the one hour period. Only growth cones with a net extension >5 μm over the one-hour period were scored.
(§2) 10. M. A. Schwarzschild and R. E. Zigmond, J. Neurochem. 56, 400 (1991). Pharmacological agents were added to the culture medium at least 30 minutes before the gradient was applied and were present during the experiments. The final concentrations of pharmacological agents in the medium were listed.

[2] = test system: growth cones of Xenopus spinal neurons; assay: Growth cone turning in a netrin-1 gradient; conditions: for turning response in netrin-1 gradient with agent in medium: netrin-1 5 μg/ml in the pipette, Rp-cGMPS 10 μM, 8-br-cGMP 100 μM, Rp-cAMPS 20 μM
Procedure: (§3) FIGS. 4A-4D. (A) Effects of manipulating cyclic nucleotide levels on turning induced by a rMAG gradient (150 μg/ml in the pipette) in normal medium, in medium containing 8-br-cGMP (100 μM) or Sp-cAMPS (20 μM), and by heat-inactivated rMAG in normal medium. […] (B) Effects of reducing [Ca^2+]o on turning responses induced by rMAG. […] (C) Turning responses induced by a gradient of netrin-1 (5 μg/ml in the pipette) (5), in normal medium and in medium containing Rp-cGMPS (10 μM), 8-br-cGMP (100 μM), Rp-cAMPS (20 μM), or both Rp-cAMPS (20 μM) and 8-br-cGMP (100 μM). […] (D) Turning induced by a NT-3 gradient (50 μg/ml in the pipette) in normal medium and in medium containing Rp-cAMPS (20 μM) or Rp-cGMPS (10 μM), or in medium containing 1 μM Ca^2+.
as §1, §2

[3] = test system: growth cones of Xenopus spinal neurons; assay: Growth cone turning in a NT-3 gradient; conditions: NT-3 50 μg/ml in the pipette; Rp-cGMPS 10 μM, Rp-cAMPS 20 μM
Procedure: as §3
8. Dissociated Xenopus spinal neurons were prepared as described (4,5). Isolated spinal neurons were used for experiments at room temperature (22°-24° C.) 14-22 hour after plating. Sema III was purified from conditioned medium of stable 293-EBNA cell lines secreting Sema III-AP as described (17). To inactivate Sema III activity, the supernatant containing Sema III-AP was heated at 85° C. for 45 minutes [J. Fan and J. A. Raper, Neuron 14, 263 (1995)]. Microscopic gradients of diffusible factors were produced as described (4,5). […] Only growth cones with a net extension >5 μm over the one-hour period were scored. […]

[4] = test system: growth cones of Xenopus spinal neurons; assay: Growth cone turning in a rMAG gradient; conditions: for growth cone turning response in rMAG gradient with agent in medium: rMAG 150 μg/ml in the pipette, 8-br-cGMP 100 μM, Sp-cAMPS 20 μM
Source text: To examine whether the responses to other repulsive factors can be converted, we studied myelin-associated glycoprotein (MAG), a component of myelin and an inhibitor of axonal regeneration (22). […] However, the repulsion by rMAG was not affected by the addition of 8-br-cGMP. […] Thus the turning response induced by rMAG can be modulated by cAMP-dependent activities. This is reminiscent of the turning responses induced by gradients of BDNF and netrin-1 (4,5), although the latter factors are normally attractive and are converted to repulsive by inhibition of cAMP-dependent activities.
as §1
10. M. A. Schwarzschild and R. E. Zigmond, J. Neurochem. 56, 400 (1991). Pharmacological agents were added to the culture medium at least 30 minutes before the gradient was applied and were present during the experiments. […]

[5] = test system: rat dorsal root ganglion (DRG) axons; assay: Growth cone collapse assay with Sema III on DRG explants; conditions: for inhibition of the collapsing activity of Sema III: agent added an hour before the collapse assay; for effect of agent alone on growth cones: without Sema III
Procedure: 21. DRG explants derived from E14 rat embryos were cultured with 25 ng/ml NGF on plates precoated with poly-D-lysine and laminin for 20 hours before experiments as described (17). Pharmacological agents were added an hour before the collapse assay. The collapse assay was performed on sensory axons from these explants using Sema III-AP-containing medium essentially as described (17). For visualization, growth cones were stained with rhodamine-phalloidin, then washed and mounted.

Molecule: Nc1ncnc2c1ncn2[C@@H]1O[C@@H]2CO[P@@](O)(=S)O[C@H]2[C@H]1O [Rp-cAMPS]
- conversion of the Sema III turning response in the presence of 8-br-cGMP [1]: blocked the conversion of the turning response
- turning response in netrin-1 gradient with agent in medium [2]: repulsive turning
- attractive response in a NT-3 gradient with agent in medium [3]: no effect

Molecule: Nc1ncnc2c1ncn2[C@@H]1O[C@@H]2COP(O)(=S)O[C@H]2[C@H]1O (stereo partly drawn) [Sp-cAMPS]
- growth cone turning response in rMAG gradient with agent in medium [4]: converted to attraction
- conversion of the Sema III turning response in the presence of 8-br-cGMP [1]: not
- inhibition of the collapsing activity of Sema III [5]: not
- effect of agent alone on growth cones [5]: no detectable effect

Molecule: Nc1nc2c(ncn2[C@@H]2O[C@@H]3COP(O)(=S)O[C@H]3[C@H]2O)c(=O)[nH]1 (stereo partly drawn) [Sp-cGMPS]
- growth cone turning response in Sema III gradient with agent in culture medium [1]: nearly all growth cones turned toward rather than away from the pipette

Molecule: CC(=O)N[C@H](C(=O)O)C(C)(C)SN=O (racemic) [S-Nitroso-N-acetylpenicillamine]
- growth cone turning response in Sema III gradient with agent in culture medium [1]: abolished the repulsive turning response without causing a significant attractive response

Molecule: Nc1nc2c(ncn2[C@@H]2O[C@@H]3COP(O)(=S)O[C@H]3[C@H]2O)c(=O)[nH]1 (stereo partly drawn) [Rp-cGMPS]
- growth cone turning response in Sema III gradient with agent in culture medium [1]: did not affect the growth cone response
- turning response in netrin-1 gradient with agent in medium [2]: did not affect the attractive turning
- attractive response in a NT-3 gradient with agent in medium [3]: converted to repulsive response

Molecule: Nc1nc2c(nc(Br)n2[C@@H]2O[C@@H]3COP(=O)(O)O[C@H]3[C@H]2O)c(=O)[nH]1 [Activator 8-br-cGMP, 8-br-cGMP]
- growth cone turning response in rMAG gradient with agent in medium [4]: not affected
- growth cone turning response in Sema III gradient with agent in culture medium [1]: nearly all growth cones turned toward rather than away from the pipette; also recorded: attractive response
- repulsive turning in netrin-1 gradient in the presence of Rp-cAMPS ([2]; Rp-cAMPS 20 μM and 8-br-cGMP 100 μM): not affected
- turning response in netrin-1 gradient with agent in medium [2]: did not affect the attractive turning
- inhibition of the collapsing activity of Sema III [5]: inhibited the collapsing activity of Sema III in a dose-dependent manner
- concentrations needed to inhibit the collapsing activity of Sema III ([5]; rat DRG explants): 0.5 to 5 mM
- effect of agent alone on growth cones [5]: no detectable effect

B1: rMAG: recombinant protein consisting of the extracellular domain of MAG (protein, UniProt P07722 20-516, looked up)
extracellular domain: GHWGAWMPSSISAFEGTCVSIPCRFDFPDELRPAVVHGVWYFNSPYPKNYPPVVFKSRTQVVHESFQGRSRLLGDLGLRNCTLLLSTLSPELGGKYYFRGDLGGYNQYTFSEHSVLDIINTPNIVVPPEVVAGTEVEVSCMVPDNCPELRPELSWLGHEGLGEPTVLGRLREDEGTWVQVSLLHFVPTREANGHRLGCQAAFPNTTLQFEGYASLDVKYPPVIVEMNSSVEAIEGSHVSLLCGADSNPPPLLTWMRDGMVLREAVAESLYLDLEEVTPAEDGIYACLAENAYGQDNRTVELSVMYAPWKPTVNGTVVAVEGETVSILCSTQSNPDPILTIFKEKQILATVIYESQLQLELPAVTPEDDGEYWCVAENQYGQRATAFNLSVEFAPIILLESHCAAARDTVQCLCVVKSNPEPSVAFELPSRNVTVNETEREFVYSERSGLLLTSILTLRGQAQAPPRVICTSRNLYGTQSLELPFQGAHRLMWAKIGP
modifications: extracellular domain
notes: recombinant protein consisting of the extracellular domain of MAG
- growth cone turning induced by the rMAG gradient ([4]; normal medium): repelled growth cones

B2: Sema III: a diffusible member of the semaphorin family, purified from conditioned medium of 293-EBNA cell lines (protein, UniProt Q14563 21-771, looked up)
Semaphorin-3A: NYQNGKNNVPRLKLSYKEMLESNNVITFNGLANSSSYHTFLLDEERSRLYVGAKDHIFSFDLVNIKDFQKIVWPVSYTRRDECKWAGKDILKECANFIKVLKAYNQTHLYACGTGAFHPICTYIEIGHHPEDNIFKLENSHFENGRGKSPYDPKLLTASLLIDGELYSGTAADFMGRDFAIFRTLGHHHPIRTEQHDSRWLNDPKFISAHLISESDNPEDDKVYFFFRENAIDGEHSGKATHARIGQICKNDFGGHRSLVNKWTTFLKARLICSVPGPNGIDTHFDELQDVFLMNFKDPKNPVVYGVFTTSSNIFKGSAVCMYSMSDVRRVFLGPYAHRDGPNYQWVPYQGRVPYPRPGTCPSKTFGGFDSTKDLPDDVITFARSHPAMYNPVFPMNNRPIVIKTDVNYQFTQIVVDRVDAEDGQYDVMFIGTDVGTVLKVVSIPKETWYDLEEVLLEEMTVFREPTAISAMELSTKQQQLYIGSTAGVAQLPLHRCDIYGKACAECCLARDPYCAWDGSACSRYFPTAKRRTRRQDIRNGDPLTHCSDLHHDNHHGHSPEERIIYGVENSSTFLECSPKSQRALVYWQFQRRNEERKEEIRVDDHIIRTDQGLLLRSLQQKDSGNYLCHAVEHGFIQTLLKVTLEVIDTEHLEELLHKDDDGDGSKTKEMSNSMTPSQKVWYRDFMQLINHPNLNTMDEFCEQVWKRDRKQRRQRPGHTPGNSNKWKHLQENKKGRNRRTHEFERAPRSV
- rate of neurite extension ([1]; in the presence of the Sema III gradient): unaffected
- effective concentration at the growth cone for minimal repulsive response ([1]; normal medium): about 10 ng/ml
- growth cone turning induced by the factor gradient ([1]; normal medium, pipette 100 μm from growth cone, 45° angle): Most growth cones grew away from the pipette
- collapse of growth cones ([1]; up to 100 μg/ml of Sema III in the pipette): No obvious collapse of growth cones
